Measurements as given in paper PMC12040169 (PLOS Biology, 2025).

Assay: in vitro
Details: human, hela cells, % viability

Structure (SMILES) | viability at 28.5 h, 10 µM
Nc1c(C(=O)c2ccc3c(c2)OCO3)sc2nc(-c3cccnc3)ccc12 [CBK270186] | 86.3%
CN(C)c1nc(NC2CC2)nc(Oc2ccc(=O)n(-c3ccccc3)n2)n1 [CBK270187] | 93.9%
CC(=O)c1cc(C#N)c(SCC(=O)O)nc1C [CBK270189] | 95.8%
COCc1cc(C)n(CC(=O)Nc2ccc(N3CCOCC3)cc2)c(=O)c1C#N [CBK270190] | 95.2%
N#Cc1cnc2c(-c3ccccc3)c(Cc3ccccc3)nn2c1N [CBK270191] | 91.8%
CNS(=O)(=O)c1cc(C(=O)N2CCN(c3ccccc3)CC2)ccc1OC [CBK270192] | 88.9%
O=C(O)c1cccc(CSc2nc3ccccc3o2)c1 [CBK270193] | 91.7%
O=C(NCc1cccnc1)c1cc2c(ccc3ccccc32)oc1=O [CBK270195] | 95.7%
Cc1cc2c(cc1S(=O)(=O)NCCc1ccccc1)NC(=O)CO2 [CBK270196] | 102%
Cc1ccc(-c2noc(CNC(=O)CSc3ccccc3)n2)cc1 [CBK270199] | 91.5%
COc1cc(CNCc2ccco2)ccc1OCC(N)=O [CBK270204C] | 105%
Cc1c(C(=O)NCCCN2CCOCC2)oc2c1C(=O)CCC2 [CBK270207] | 93.1%
O=S(=O)(NCCn1cccc1)c1ccc2ccccc2c1 [CBK270211] | 90.4%
COc1c(Cl)cc(Cl)cc1CNC(C)(C)CO [CBK270212C] | 102%
COc1ccc(NC(=O)CSc2ncnc3ccccc23)cc1 [CBK270215] | 94%
COc1ccc(NS(=O)(=O)c2ccc(N3CCCC3=O)cc2)cn1 [CBK270216] | 84.9%
Cc1cc(NC(=O)c2sc3nc4c(cc3c2N)N2CCC4CC2)no1 [CBK270217] | 100%
COc1ccc(C(NC(C)=O)c2nccc3cc(OC)c(OC)cc23)cc1OC (centres unmarked) [CBK270219] | 94.6%
O=c1cc(O)c2sc3nc(-c4ccco4)cc(C(F)(F)F)c3c2[nH]1 [CBK270223] | 98.2%
CCc1nnc(SCC(=O)Nc2cccc(OC)c2)[nH]1 [CBK270226] | 93.7%
COCc1cc(C)nc(OCC(=O)N2CCCCC2)c1C#N [CBK270228] | 104%
COc1ccc2c(C)nc(NC3=NC(c4ccccc4)CC(=O)N3)nc2c1 (centres unmarked) [CBK270230] | 85.4%
O=C(O)CC(Cc1ccccc1)c1ccc(Cl)cc1 (centres unmarked) [CBK270231] | 89.6%
CC(O)CNCc1ccc(OCC(=O)NC(C)(C)C)cc1 (centres unmarked) [CBK270232C] | 87.1%

Structure (SMILES) | viability at 28.5 h, 10 µM
COc1ccc(Cl)cc1S(=O)(=O)NC(C)C(=O)O (centres unmarked) [CBK270233] | 106%
c1cc(CSc2nnc(-c3ccncc3)o2)ccn1 [CBK270235] | 92.3%
CCc1[nH]nc2c1C(C1C=CCCC1)C(C#N)=C(N)O2 (centres unmarked) [CBK270236] | 92.9%
COc1cc(CNCc2cccs2)cc(Cl)c1OCC(N)=O [CBK270237C] | 87.6%
COc1cc(CNCC2CCCO2)cc(Cl)c1OCC(N)=O (centres unmarked) [CBK270238C] | 88.4%
Cc1nnc(CSc2nnc(-c3ccc(Cl)cc3)[nH]2)o1 [CBK270241] | 102%
Cn1c(=O)n(C)c2cc(CNc3nn[nH]n3)ccc21 [CBK270243] | 92.4%
Cc1ccc(-c2nnc(SCC(=O)Nc3ccc(N4CCOCC4)cc3)n2C)cc1 [CBK270247] | 111%
O=C(Nc1ccc(-n2cc(Cl)cn2)cc1)c1ccncc1 [CBK270249] | 88.2%
N#Cc1c(Nc2cccc(F)c2)sc2c(O)cc(O)nc12 [CBK270250] | 100%
COc1ccc(C(=O)Nc2c(Cl)ccc3nsnc23)cc1 [CBK270252] | 87.2%
COCc1cc(=O)[nH]c(N2CCN(Cc3ccccc3)CC2)n1 [CBK270253] | 88.4%
Cc1nn(-c2nc3ccccc3s2)c(O)c1C [CBK270254] | 87.8%
O=C(Nc1cccc(-c2csnn2)c1)c1ccco1 [CBK270255] | 85.2%
COC(=O)c1ccc(N2CCOCC2)c(NC(=O)c2cccnc2)c1 [CBK270257] | 95.9%
CCn1c(CN2CCOCC2)nnc1SCC(=O)Nc1cc(C)cc(C)c1 [CBK270258] | 95.9%
O=C(CN1C(=O)COc2ccccc21)NC1CC1 [CBK270261] | 96%
CCOC(=O)c1ccc(N2CCN(C(C)=O)CC2)c(NC(=O)c2cccc(F)c2)c1 [CBK270263] | 93.8%
COc1ccc(C(=O)Nc2ccc(N3CCN(C(=O)C(C)(C)C)CC3)cc2)cc1 [CBK270266] | 99%
CCN1CCN(c2ccc(C(=O)OC)cc2NC(=O)c2ccccc2Cl)CC1 [CBK270267] | 98.3%
Cc1ccc2nc(-c3ccccc3)c(C)c(C(=O)O)c2c1 [CBK270268] | 87.6%
COc1ccc(C)cc1NC(=O)C1CC(=O)Nc2ncnn21 (centres unmarked) [CBK270274] | 99.5%
CC(C)Oc1cccc(C(=O)Nc2ccc(N3CCN(C(=O)C(C)(C)C)CC3)cc2)c1 [CBK270280] | 88.7%
